Data from PMC11219860, “A chemogenetic approach for dopamine imaging with tunable sensitivity” (Nature Communications, 2024).
Like-named read-outs stand apart in the source and are kept apart here.

Columns and labels:
[1] = test system: dLight1.3b; experiment: Two-photon dLight1.3b imaging in acute brain slices; set-up: species or system mouse
Description: Coronal brain slices (240 µm) containing the striatum and PFC were prepared from AAV-injected mice after 3–4 weeks of viral expression. Briefly, mice were deeply anesthetized with isoflurane and trans-cardially perfused with ice-cold cutting solution containing (in mM): 75 NaCl, 50 sucrose, 6 MgCl2, 2.5 KCl, 1.2 NaH2PO4, 0.1 CaCl2, 25 NaHCO3, and 2.5 D-glucose (bubbled with 5% CO2 in O2). The brain was quickly removed and sectioned using a vibrating blade microtome (VT1200S; Leica) before slices were transferred to an incubation chamber filled with artificial cerebrospinal fluid (ACSF) containing (in mM): 126 NaCl, 2.5 KCl, 1.2 MgCl2, 1.2 NaH2PO4, 2.5 CaCl2, 21.4 NaHCO3, 11.1 D-glucose and 10 µM MK-801 (34 °C, bubbled with 5% CO2 in O2, pH 7.4). After 45 min equilibration, slices were individually transferred to a recording chamber for 2 P imaging. NMDA, AMPA, GABA-A, nicotinic, and muscarinic receptors were blocked using 10 µM MK801, 10 µM DNQX, 100 µM picrotoxin, 1 µM DHBE, and 0.3 µM scopolamine, respectively. Changes of dLight fluorescence were measured by 2 P laser scanning microscopy, using a custom-built BX51WI microscope (Olympus). Excitation (920 nm) was provided by a pulsed Ti:Sapphire laser (Chameleon Ultra I; Coherent) and scanned using a pair of X-Y galvanometer mirrors (6215; Cambridge Technology). Emission was collected by a water immersion objective (60x, N.A. 1.00; Olympus) and filtered (ET680sp and ET525/50m-2P; Chroma) before detection by GaAsP photomultiplier tube (PMT, H10770PA-40; Hamamatsu). The temporal kinetics of fluorescence changes were captured using fast acquisition speed (2 kHz), ‘spot photometry’ (Toronado; B.W. Strowbridge), by scanning the laser around a circular path ([…] diameter) centered at the tip of the stimulating electrode or iontophoresis pipette which was visualized in the red channel (ET620/60 m; Chroma). The spatial dynamics of dLight fluorescence were captured by rasterized movie acquisition (30 × 40 µm, 3 Hz) and analyzed using ImageJ. Exogenous DA was applied by iontophoresis, using a thin-walled glass pipette filled with DA (1 M) and sulforhodamine 101 (300 µM), and ejected by short pulses of positive current ( + 20 to +200 nA, 5 ms) with a negative retention current to prevent DA leakage (−10 to −15 nA). Endogenous DA release was evoked by electrical stimulation using a double-tipped electrode pulled from septum theta glass capillaries (WPI), visualized with sulforhodamine 101 (10 µM). A single pulse (10 µA, 0.5 ms) was used to evoke DA release in striatal slices, while a train of stimuli (5 × 20 µA at 25 Hz) was used in cortical slices. Changes of fluorescence are expressed as ∆F/F0, wherein baseline fluorescence (F0) was measured from the 300 ms before DA stimulation in spot photometry measurements, or defined as the average of 10 frames preceding stimulation in rasterized movies. Peak ∆F/F0 was calculated by maximum peak detection from the time period following stimulation ( ~ 500 ms) or from the rasterized frame immediately following stimulation. Data were analyzed in AxoGraph (J. Clements) and ImageJ.

[2] = 10 and 30 mg/kg per os, ref Svensson et al 2017, cited from earlier work

C[C@H]1c2cccc(C(C)(C)O)c2C[C@H](CO)N1C(=O)Cc1c(Cl)cccc1Cl [DETQ, 2-(2,6-dichlorophenyl)-1-((1S,3R)-3-(hydroxymethyl)-5-(2-hydroxypropan-2-yl)-1-methyl-3,4-dihydroisoquinolin-2(1H)-yl)ethan-1-one]
fluorescence changes evoked by train of stimuli in PFC slices ([1]; 5 × 20 µA, 0.5 ms, 25 Hz, DETQ): unmask small increases
area of dLight1.3b ∆F/F0 >2σ noise ([1]; DA iontophoresis 20 nA, DETQ 200 nM): significantly increased
peak ∆F/F0 and area (>2σ noise) evoked by single electrical stimulation ([1]; dorsal striatum slices, 10 µA, 0.5 ms, DETQ): significantly enhanced
decay time of fluorescence changes (spot photometry) ([1]; ejection current 50 nA, DETQ 200 nM): slowed
increase of dLight sensitivity (peak ∆F/F0 over ejection currents) ([1]; striatal slices, DA iontophoresis, DETQ 200 nM): 2.6 fold
behavioral activity ([2]; hD1 mice): pronounced behavioral activation
behavioral activity ([2]; wild type mice): no behavioral activity
